US9695155B2, “Herbicidal substituted pyrimidinyloxy benzene compounds” (E. I. DU PONT DE NEMOURS AND COMPANY, priority 2013, dated 2017)

How the values were obtained:
sedge, umbrella = test: Test B flooded paddy test; assay type: in vivo, Cyperus difformis; conditions: Flood, 250 g ai/ha; 0 to 100 scale where 0 is no effect and 100 is complete control
How it was run: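 Plants were grown to the 2-leaf stage, then pots were flooded to 3 cm above the soil and compounds were applied directly into the paddy water. That depth was held throughout, and after 13 to 15 days in the greenhouse injury was rated visually against controls on a 0–100 scale (0 no effect, 100 complete control).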

velvetleaf = test: Test C preemergence; assay type: in vivo, Abutilon theophrasti; conditions: for Velvetleaf plant response rating: preemergence; for Plant response rating, Velvetleaf: Preemergence, 31 g ai/ha, scale 0 to 100, 0 no effect, 100 complete control
How it was run: (§1)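 Preemergence: seeds sown in a loam soil–sand blend and sprayed with test chemical in a non-phytotoxic solvent mixture containing surfactant. Postemergence: plants at 2 to 18 cm (1- to 4-leaf stage) in peat-based medium, treated with the same formulation. Greenhouse 13 to 15 days, then visual rating 0 (no effect) to 100 (complete control).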

galium = test: Test C postemergence; assay type: in vivo, Galium aparine; conditions: for Galium plant response rating: 16 g ai/ha, visual rating; for Galium plant response rating / Plant response rating (0 to 100), Galium: postemergence; for Galium plant response rating / Plant response rating, Galium: scale 0 to 100 (0 no effect, 100 complete control); for Plant response rating (0 to 100), Galium: 125 g ai/ha; for Plant response rating, Galium: Postemergence
How it was run: as §1

wheat = test: Test A postemergence; assay type: in vivo, Triticum aestivum; conditions: 0 to 100 scale where 0 is no effect and 100 is complete control
How it was run: (§2)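 Visual 0–100 rating (100 = complete control) taken about 10 d post-treatment relative to untreated checks. Preemergence: directed soil spray on sown loam/sand pots. Postemergence: seedlings 2–10 cm, 1–2 leaf. Non-phytotoxic solvent formulation with surfactant.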

wheat, winter = test: Test C postemergence; assay type: in vivo, Triticum aestivum; conditions: for Plant response rating (0 to 100), Wheat: 125 g ai/ha, postemergence; for Plant response rating, Wheat: Postemergence, scale 0 to 100 (0 no effect, 100 complete control)
How it was run: as §1

morningglory [1] = test: Test C postemergence; assay type: in vivo, Ipomoea coccinea; conditions: for Plant response rating (0 to 100), Morningglory: 125 g ai/ha, postemergence; for Plant response rating, Morningglory: Postemergence, scale 0 to 100 (0 no effect, 100 complete control)
How it was run: as §1

corn = test: Test C preemergence; assay type: in vivo, Zea mays; conditions: for Corn plant response rating: preemergence; for Plant response rating, Corn: Preemergence, 31 g ai/ha, scale 0 to 100, 0 no effect, 100 complete control
How it was run: as §1

barnyardgrass = test: Test A postemergence; assay type: in vivo, Echinochloa crus-galli
How it was run: as §2

giant foxtail [2] = test: Test C postemergence; assay type: in vivo, Setaria faberii; conditions: for Foxtail, Giant plant response rating: 16 g ai/ha, visual rating; for Foxtail, Giant plant response rating / Plant response rating (0 to 100), Foxtail, Giant: postemergence; for Foxtail, Giant plant response rating / Plant response rating, Foxtail, Giant: scale 0 to 100 (0 no effect, 100 complete control); for Plant response rating (0 to 100), Foxtail, Giant: 125 g ai/ha; for Plant response rating, Foxtail, Giant: Postemergence
How it was run: as §1

waterhemp = test: Test C preemergence; assay type: in vivo, Amaranthus rudis; conditions: for Waterhemp plant response rating: preemergence; for Plant response rating, Waterhemp: Preemergence, 31 g ai/ha, scale 0 to 100, 0 no effect, 100 complete control
How it was run: as §1

morningglory [3] = test: Test C preemergence; assay type: in vivo, Ipomoea coccinea; conditions: for Morningglory plant response rating: preemergence; for Plant response rating, Morningglory: Preemergence, 31 g ai/ha, scale 0 to 100, 0 no effect, 100 complete control
How it was run: as §1

yellow nutsedge = test: Test C postemergence; assay type: in vivo, Cyperus esculentus; conditions: for Plant response rating (0 to 100), Nutsedge, Yellow: 125 g ai/ha, postemergence; for Plant response rating, Nutsedge, Yellow: Postemergence, scale 0 to 100 (0 no effect, 100 complete control)
How it was run: as §1

giant foxtail [4] = test: Test A preemergence; assay type: in vivo, Setaria faberii; conditions: for Plant response rating, Foxtail, Giant: 125 g ai/ha, 0 to 100 scale where 0 is no effect and 100 is complete control; for Foxtail, Giant plant response rating: 500 g ai/ha, 0 to 100 scale, 0 no effect, 100 complete control, approx. 10 days
How it was run: as §2

ragweed = test: Test C postemergence; assay type: in vivo, Ambrosia elatior; conditions: for Plant response rating (0 to 100), Ragweed: 125 g ai/ha, postemergence; for Plant response rating, Ragweed: Postemergence, scale 0 to 100 (0 no effect, 100 complete control)
How it was run: as §1

[5] = 16 g ai/ha, scale 0 to 100 (0 no effect, 100 complete control)
[6] = 62 g ai/ha, scale 0 (no effect) to 100 (complete control)
[7] = 125 g ai/ha, scale 0 (no effect) to 100 (complete control)
[8] = 125 g ai/ha, 0 to 100 scale where 0 is no effect and 100 is complete control

N#Cc1cccc(Oc2ncc(F)cn2)c1-n1cc(I)cn1 [Compound 86]
Plant response rating, Sedge, Umbrella (sedge, umbrella): 65 | Velvetleaf plant response rating (velvetleaf; [5]): 20 | Velvetleaf plant response rating (velvetleaf; [6]): 100 | Velvetleaf plant response rating (velvetleaf; [7]): 100 | Plant response rating, Velvetleaf (velvetleaf): 50 | Galium plant response rating (galium; 13 to 15 days): 55 | Plant response rating (0 to 100), Galium (galium): 80 | Plant response rating, Galium (galium; 31 g ai/ha, 13 to 15 days): 60 | Plant response rating, Galium (galium; 62 g ai/ha): 80 | Plant response rating, Wheat (wheat; 125 g ai/ha): 50 | Plant response rating, Wheat (wheat; 500 g ai/ha): 90 | Plant response rating (0 to 100), Wheat (wheat, winter): 0 | Plant response rating, Wheat (wheat, winter; 31 g ai/ha, 13 to 15 days): 0 | Plant response rating, Wheat (wheat, winter; 62 g ai/ha): 0 | Plant response rating (0 to 100), Morningglory (morningglory [1]): 85 | Plant response rating, Morningglory (morningglory [1]; 31 g ai/ha, 13 to 15 days): 80 | Plant response rating, Morningglory (morningglory [1]; 62 g ai/ha): 85 | Corn plant response rating (corn; [5]): 0 | Corn plant response rating (corn; [6]): 30 | Corn plant response rating (corn; [7]): 80 | Plant response rating, Corn (corn): 25 | Plant response rating, Barnyardgrass (barnyardgrass; [8]): 90 | Plant response rating, Barnyardgrass (barnyardgrass; 500 g ai/ha, 0 to 100 scale where 0 is no effect and 100 is complete control): 100 | Foxtail, Giant plant response rating (giant foxtail [2]; 13 to 15 days): 5 | Plant response rating (0 to 100), Foxtail, Giant (giant foxtail [2]): 25 | Plant response rating, Foxtail, Giant (giant foxtail [2]; 31 g ai/ha, 13 to 15 days): 5 | Plant response rating, Foxtail, Giant (giant foxtail [2]; 62 g ai/ha): 15 | Waterhemp plant response rating (waterhemp; [5]): 100 | Waterhemp plant response rating (waterhemp; [6]): 100 | Waterhemp plant response rating (waterhemp; [7]): 100 | Plant response rating, Waterhemp (waterhemp): 100 | Morningglory plant response rating (morningglory [3]; [5]): 10 | Morningglory plant response rating (morningglory [3]; [6]): 60 | Morningglory plant response rating (morningglory [3]; [7]): 100 | Plant response rating, Morningglory (morningglory [3]): 25 | Plant response rating (0 to 100), Nutsedge, Yellow (yellow nutsedge): 5 | Plant response rating, Nutsedge, Yellow (yellow nutsedge; 31 g ai/ha, 13 to 15 days): 0 | Plant response rating, Nutsedge, Yellow (yellow nutsedge; 62 g ai/ha): 5 | Plant response rating, Foxtail, Giant (giant foxtail [4]): 100 | Foxtail, Giant plant response rating (giant foxtail [4]): 100 | Plant response rating (0 to 100), Ragweed (ragweed): 85 | Plant response rating, Ragweed (ragweed; 31 g ai/ha, 13 to 15 days): 50 | Plant response rating, Ragweed (ragweed; 62 g ai/ha): 55

FCc1cccc(Oc2ncc(Cl)cn2)c1-n1cc(Br)cn1 [Compound 83]
Plant response rating, Sedge, Umbrella (sedge, umbrella): 45 | Velvetleaf plant response rating (velvetleaf; [5]): 60 | Velvetleaf plant response rating (velvetleaf; [6]): 100 | Velvetleaf plant response rating (velvetleaf; [7]): 100 | Plant response rating, Velvetleaf (velvetleaf): 100 | Galium plant response rating (galium; 13 to 15 days): 50 | Plant response rating (0 to 100), Galium (galium): 60 | Plant response rating, Galium (galium; 31 g ai/ha, 13 to 15 days): 65 | Plant response rating, Galium (galium; 62 g ai/ha): 70 | Plant response rating, Wheat (wheat; 125 g ai/ha): 0 | Plant response rating, Wheat (wheat; 500 g ai/ha): 60 | Plant response rating (0 to 100), Wheat (wheat, winter): 5 | Plant response rating, Wheat (wheat, winter; 31 g ai/ha, 13 to 15 days): 0 | Plant response rating, Wheat (wheat, winter; 62 g ai/ha): 0 | Plant response rating (0 to 100), Morningglory (morningglory [1]): 85 | Plant response rating, Morningglory (morningglory [1]; 31 g ai/ha, 13 to 15 days): 65 | Plant response rating, Morningglory (morningglory [1]; 62 g ai/ha): 75 | Corn plant response rating (corn; [5]): 0 | Corn plant response rating (corn; [6]): 0 | Corn plant response rating (corn; [7]): 15 | Plant response rating, Corn (corn): 0 | Plant response rating, Barnyardgrass (barnyardgrass; [8]): 90 | Plant response rating, Barnyardgrass (barnyardgrass; 500 g ai/ha, 0 to 100 scale, 0 no effect, 100 complete control): 100 | Foxtail, Giant plant response rating (giant foxtail [2]; 13 to 15 days): 35 | Plant response rating (0 to 100), Foxtail, Giant (giant foxtail [2]): 40 | Plant response rating, Foxtail, Giant (giant foxtail [2]; 31 g ai/ha, 13 to 15 days): 35 | Plant response rating, Foxtail, Giant (giant foxtail [2]; 62 g ai/ha): 10 | Waterhemp plant response rating (waterhemp; [5]): 75 | Waterhemp plant response rating (waterhemp; [6]): 100 | Waterhemp plant response rating (waterhemp; [7]): 100 | Plant response rating, Waterhemp (waterhemp): 100 | Morningglory plant response rating (morningglory [3]; [5]): 0 | Morningglory plant response rating (morningglory [3]; [6]): 0 | Morningglory plant response rating (morningglory [3]; [7]): 10 | Plant response rating, Morningglory (morningglory [3]): 0 | Plant response rating (0 to 100), Nutsedge, Yellow (yellow nutsedge): 5 | Plant response rating, Nutsedge, Yellow (yellow nutsedge; 31 g ai/ha, 13 to 15 days): 0 | Plant response rating, Nutsedge, Yellow (yellow nutsedge; 62 g ai/ha): 5 | Plant response rating, Foxtail, Giant (giant foxtail [4]): 100 | Foxtail, Giant plant response rating (giant foxtail [4]): 100 | Plant response rating (0 to 100), Ragweed (ragweed): 70 | Plant response rating, Ragweed (ragweed; 31 g ai/ha, 13 to 15 days): 40 | Plant response rating, Ragweed (ragweed; 62 g ai/ha): 60
